Test results reported in patent US8309766B2 (Obschestvo S. Organichennoi Otvetstvennostiyu …, priority 2005, dated 2012).
Read-outs that look alike come from different tables or passages of the source.

Assays:
[1] = system: "hot plate" test in mice; experiment: Analgetic activity on the model "hot plate"; type: in vivo, white mongrel mice; details: for response vs control in vivo at 10 mg/kg / change in vivo at 10 mg/kg: Mus musculus; for response vs control in vivo at 10 mg/kg: read-out: Latent time of NT (%); for change in vivo at 10 mg/kg: read-out: Analgesia (%)
Description: The tests were conducted on males of white mongrel mice weighing 22-24 grams. The animals were individually placed on a hot plate (manufactured by the firm “Ugo Basile”), a temperature of which remained constant and was equal to 55° C. The following first manifestations of pain reaction were recorded: licking paws, jumping up prior to administration of a substance (background parameters) and 0.5, 1, 2, 3 and 4 hours post administration of a substance. Substances were administered […] (using a probe). A weighed amount of a substance was thoroughly mixed in 0.1 ml Tween 80 until a solution was obtained, then normal saline was added up to a volume of 0.5 ml. Average latent time of nociception threshold (NT) was calculated in every group. The results obtained were expressed in percent of the background values. Analgetic effect (in %) was calculated according to the formula: A−100%=X, wherein A is a background parameter; X is analgetic effect (in %)
A is (time 0.5 to 4 hours post administration×100%): background time
As reference drugs, Analgin (150 mg/kg), Paracetamol (200 mg/kg), Ketorol (10 mg/kg), were used.

[2] = system: "acetic contortions" in mice; experiment: Effect on analgetic action of Tramal and Analgin on the model "acetic contortions"; type: in vivo, white mongrel mice
Description: (§1) The tests were conducted on males of white mongrel mice weighing 22-24 grams. The specific pain response (“contortions”) were elicited by intraperitoneal administration to mice of 0.75% acetic acid solution. The following signs were taken into consideration: the number of seizure contractions of abdominal muscles accompanied by stretching the hind limbs and sagging the back. Analgetic effect was assessed by decrease in the number of contortions in animals in percent to the control for 15 minutes post administration of acetic acid. The technique of the tests is disclosed in Koster R., Anderson M., de Beer B.//Fed. Proc. 1959. V. 18. P. 412. Compounds under testing were administered intraperitoneally (using a probe) at a dose 10 μg/kg 60 minutes prior to injection of the acid. Diclofenac (10 mg/kg) was used as a reference drug. Analgetic effect was calculated according to the formula: […]
The studies were carried out in accordance with the technique presented in Example 18.

[3] = system: cyclooxygenase; experiment: In vitro effect on [14C]arachidonic acid metabolism in a cell-free homogenate of murine pulmonary tissue; type: biochemical, CBA mice; details: compound 10^−4 M; for Prostanoids / AA (arachidonic acid) / 6-keto-PGF1α / PGE2 / PGF2α / TXB2: 37° C., 30 minutes; for Prostanoids: b308 reads these as % cyclooxygenase inhibition; for AA (arachidonic acid) / 6-keto-PGF1α / PGE2 / PGF2α / TXB2: change; for 6-keto-PGF1α / PGF2α: first of only four cells in the row; for TXB2 / PGE2: second of only four cells in the row
Description: Studies of arachidonic acid metabolism was carried out on females CBA mice who where fed a standard vivarium fodder. Animals (mice) were sacrificed, lungs were extracted, homogenized in a glass homogenizer manufactured by the firm “Wheaton” (USA) at 4° C. in 10 volumes of 0.05 M Tris-HCl buffer. Aliquots (0.5 ml) of supernatant were incubated in 0.5 μCi [1-C^14]-arachidonic acid [C^14]-AA, “Amersham”, England; specific activity 50-60 μCi/mmole) at 37° C. for 30 minutes. Non-metabolized [αC^14]-AA and products of metabolism thereof were extracted in 20 volumes of chloroform and methanol mixture (1:1) in extraction efficacy not less than 90% assessed using [C^14]-PGF2α. [C^14]-AA and metabolites thereof were separated and identified using TLC (the plates Kieselgel 60 of the “Merck” firm, Germany) using as an organic phase, the system of solvents (ethylacetate, isooctane, acetic acid, water—110:50:20:100) and labeled standards. Densitometry of autoradiochromograms obtained on the X-ray film X-Omat AR (“Kodak”, USA) and HS 11 (“ORWO”, Germany), was performed on the densiscan KS 3 (“Kipp and Zonnen”, Holland). Quantitative analysis of individual eicosanoids was carried out using radiometry of fractions obtained by high-performance liquid chromatography (the HPLC-system of the “Gilson” form, France; the column ZORBAX C8 of the “Du Pont” firm, USA) and by elution of spots on TLC-plates. The tested compounds were administered at concentration 10^−4 M.

[4] = system: "acetic contortions" in mice; experiment: Analgetic activity on the model "acetic contortions"; type: in vivo, white mongrel mice; details: dose 10 mg/kg (table title); for inhibition in vivo at 10 mg/kg / response vs control in vivo at 10 mg/kg: Mus musculus, ip, 0.25 h; for inhibition in vivo at 10 mg/kg: read-out: Analgetic effect (%); for response vs control in vivo at 10 mg/kg: read-out: C, % to the control; for C ± m (the number of contortions for 15 minutes): 60 minutes prior to acetic acid
Description: as §1
wherein Ck is the number of contortions in the control group,
Co is the number of contortions in the test group.

[5] = system: mice, forced swimming; experiment: "Behavioral despair" test according to Porsolt; type: in vivo; details: 50 mg/kg orally
Description: The “behavioral despair” test according to Porsolt [R. D. Porsolt, A. Bertin and M. Jalfre.//in mice: A primary Screening Test for Antidepressants. Arch. Int. Pharmacodyn., 1977, 229, p. 327-336] is a predictive test for drugs with antidepressant action.
Stress state in mice (weighing 27-30 grams) is induced by forced swimming. Animals are placed into a cylinder (height 25 cm, diameter 10 cm) filled to ⅓ with water at temperature 21-23° C. The animals cannot escape from the cylinder by themselves. Following a short time of activity the animals develop a so called “behavioral depression” characterized by hovering of animals, immobilization duration of which can be fixed. The experiment is carried out in two days. One a first day, animals are placed into the cylinder for 15 minutes (pre-test). After removal from water, the animals are dried and preparations under testing are administered. At 24 hours, the preparations are administered again and one hour later the animals are placed into the cylinder for 6 minutes. During first two minutes the animals are actively swimming; during the subsequent four minutes, behavioral depression develops manifested by immobilization (hovering) which is fixed for 4 minutes and is measure in seconds. Compound IX and the reference antidepressant drug Fluoxetin were administered orally at a dose 50 mg/kg.

[6] = 10 mg/kg, 60 minutes post administration
[7] = 10 mg/kg, 120 minutes post administration
[8] = 1 h, 10 mg/kg, 60 minutes, percent of background
[9] = 2 h, 10 mg/kg, 120 minutes, percent of background
[10] = 10 mg/kg, 30 minutes post administration
[11] = 0.5 h, 10 mg/kg, 30 minutes, percent of background
[12] = 10 mg/kg, 240 minutes post administration

| Structure (SMILES) | Prostanoids [3] | AA (arachidonic acid) [3] | inhibition in vivo at 10 mg/kg [4] | response vs control in vivo at 10 mg/kg [4] | C ± m (the number of contortions for 15 minutes) [4] | latent time of nociception threshold, M ± m [1, 6] | latent time of nociception threshold, M ± m [1, 7] | response vs control in vivo at 10 mg/kg [1, 8] | change in vivo at 10 mg/kg ([1]; 1 h, 10 mg/kg, 60 minutes) | response vs control in vivo at 10 mg/kg [1, 9] | change in vivo at 10 mg/kg ([1]; 2 h, 10 mg/kg, 120 minutes) | latent time of nociception threshold, M ± m [1, 10] | response vs control in vivo at 10 mg/kg [1, 11] | change in vivo at 10 mg/kg ([1]; 0.5 h, 10 mg/kg, 30 minutes) | further results |
| --- | --- | --- | --- | --- | --- | --- | --- | --- | --- | --- | --- | --- | --- | --- | --- |
| Cc1c(N(C)CS(=O)(=O)[O-])c(=O)n(-c2ccccc2)n1C.[Na+] [Analgin, reference compound] |  |  |  |  |  |  |  |  |  |  |  |  |  |  | Analgesia (%) ([1]; Analgin 150 mg/kg, 30 minutes): 53.4%; Latent time of NT (%) ([1]; Analgin 150 mg/kg, 30 minutes): 153.4%; latent time of nociception threshold, M ± m ([1]; Analgin 150 mg/kg, 30 minutes): 7.44 ± 1.22 s; Analgesia (%) ([1]; Analgin 150 mg/kg, 60 minutes): 50.3%; Latent time of NT (%) ([1]; Analgin 150 mg/kg, 60 minutes): 150.3%; latent time of nociception threshold, M ± m ([1]; Analgin 150 mg/kg, 60 minutes): 7.29 ± 0.71 s; Analgesia (%) ([1]; Analgin 150 mg/kg, 120 minutes): 28.9%; Latent time of NT (%) ([1]; Analgin 150 mg/kg, 120 minutes): 128.9%; latent time of nociception threshold, M ± m ([1]; Analgin 150 mg/kg, 120 minutes): 6.25 ± 0.75 s; Analgesia (%) ([1]; Analgin 150 mg/kg, 240 minutes): 10.3%; Latent time of NT (%) ([1]; Analgin 150 mg/kg, 240 minutes): 110.3%; latent time of nociception threshold, M ± m ([1]; Analgin 150 mg/kg, 240 minutes): 5.35 ± 0.38 s; Analgetic effect, % ([2]; Analgin 50 mg/kg alone): 37.5%; Number of contortions for 15 minutes, M ± m ([2]; Analgin 50 mg/kg alone): 20.7 ± 2.3 |
| O=C(CCc1ccccc1)NCCc1ccc(O)cc1 [Compound XII, 3-phenylpropionyltyramine] | −44 | +42 | 41.4% | 58.6% | 20.1 ± 2.1 |  |  |  |  |  |  |  |  |  | 6-keto-PGF1α / PGF2α [3]: −42; TXB2 / PGE2 [3]: −47 |
| CNCCC(Oc1ccc(C(F)(F)F)cc1)c1ccccc1 (stereo not drawn) [Fluoxetin, reference compound] |  |  |  |  |  |  |  |  |  |  |  |  |  |  | % change from the control [5]: −33% |
| COc1cccc(C2(O)CCCCC2CN(C)C)c1 (stereo not drawn) [Tramal, reference compound] |  |  |  |  |  |  |  |  |  |  |  |  |  |  | Analgetic effect, % ([2]; IX 10 mg/kg, Tramal 10 mg/kg, alone or combined): 53% |
| O=C(Cc1ccc(O)cc1)NCCc1ccccc1 | −40 | +40 | 56.5% | 43.5% | 16.0 ± 4.5 | 8.5 ± 0.27 s | 6.5 ± 1.16 s | 160% | 59.6% | 123% | 23.3% |  |  |  | 6-keto-PGF1α / PGF2α [3]: −45; TXB2 / PGE2 [3]: −33 |
| O=C(Cc1ccc(O)cc1)NC(Cc1ccc(O)cc1)C(=O)O (stereo not drawn) [Compound II, p-hydroxyphenylacetyltyrosine] |  |  | 24.8% | 75.2% | 24.2 ± 1.9 | 6.1 ± 0.8 s | 7.3 ± 0.6 s | 179% | 79.4% | 215% | 115% | 6.0 ± 0.6 s | 176% | 76.5% |  |
| O=C(CCc1ccc(O)cc1)NCCc1ccc(O)cc1 [Compound X, 3-(p-hydroxyphenyl)-propionyltyramine] | −22 | +27 | 54% | 46% | 11.0 ± 2.4 | 5.75 ± 0.83 s | 8.50 ± 1.03 s |  |  |  |  | 7.54 ± 0.78 s |  |  | Analgesia (%) ([1]; 10 mg/kg, 30 minutes): 75.3%; Latent time of NT (%) ([1]; 10 mg/kg, 30 minutes, percent of background): 175.3%; Analgesia (%) ([1]; 10 mg/kg, 60 minutes): 33.8%; Latent time of NT (%) ([1]; 10 mg/kg, 60 minutes, percent of background): 133.7%; Analgesia (%) ([1]; 10 mg/kg, 120 minutes): 97.7%; Latent time of NT (%) ([1]; 10 mg/kg, 120 minutes, percent of background): 197.7%; Analgesia (%) ([1]; 10 mg/kg, 240 minutes): 100.6%; latent time of nociception threshold, M ± m [1, 12]: 8.84 ± 0.925 s; Latent time of NT (%) ([1]; 10 mg/kg, 240 minutes, percent of background): 200.6%; 6-keto-PGF1α [3]: −9; PGE2 [3]: −38; PGF2α [3]: −15; TXB2 [3]: −42 |
| COC(=O)[C@H](Cc1ccccc1)NC(=O)CCc1ccc(O)cc1 [Compound XIII, 3-(p-hydroxyphenyl)-propionylphenylalanine methyl ester] |  |  | 48.4% | 51.6% | 14.6 ± 1.8 | 6.7 ± 0.7 s | 6.8 ± 0.3 s | 122% | 21.8% | 124% | 23.6% | 5.9 ± 0.3 s | 107% | 7.3% |  |
| O=C(CCc1ccc(O)cc1)N[C@@H](Cc1ccc(O)cc1)C(=O)O [Compound XIV, 3-(p-hydroxyphenyl)-propionyltyrosine] | −35 | +84 |  |  |  | 4.7 ± 0.51 s | 7.3 ± 1.09 s | 126% | 26.3% | 196% | 96.2% | 5.59 ± 1.12 s | 150% | 50.3% | latent time of nociception threshold, M ± m [1, 12]: 6.78 ± 0.504 s; response vs control in vivo at 10 mg/kg ([1]; 4 h, 10 mg/kg, 240 minutes, percent of background): 182%; change in vivo at 10 mg/kg ([1]; 4 h, 10 mg/kg, 240 minutes): 82.3%; 6-keto-PGF1α [3]: −24; PGE2 [3]: −54; PGF2α [3]: −24; TXB2 [3]: −49 |
